# Assay results as given in publication PMC8876855, “AsKC11, a Kunitz Peptide from Anemonia sulcata, Is a Novel Activator of G Protein-Coupled Inward-Rectifier Potassium Channels” (Marine Drugs, 2022).
# Bridges are numbered along the chain shown (N, C = ends). Where no end group is shown, it is not given here.
# What was measured:
# [1] = tested on: GIRK1/2 channels; details: cited from earlier work
# From the text: (§1) To better understand the potential of activating neuronal GIRK1/2 channels for therapeutic intervention, selective and potent activators have been developed for GIRK channels. […] These activators are weak and nonspecific since they exert effects in the millimolar range and target several types of ion channels at the same range of concentrations. Thus, early investigation of the pathological and physiological relevance of GIRK channels was hampered partly by the lack of potent and selective probes. ...
# [2] = tested on: GIRK2 channel; details: ref [2],[16]; cited from earlier work
# From the text: These activators are weak and nonspecific since they exert effects in the millimolar range and target several types of ion channels at the same range of concentrations. Thus, early investigation of the pathological and physiological relevance of GIRK channels was hampered partly by the lack of potent and selective probes. ...
# [3] = cited from earlier work
# From the text: To better understand the potential of activating neuronal GIRK1/2 channels for therapeutic intervention, selective and potent activators have been developed for GIRK channels. […] Howeve ...
# [4] = tested on: GIRK channels; details: ref [3],[38],[46]; cited from earlier work
# From the text: as §1
# [5] = target: T1, mGIRK1/2 (Mus musculus, UniProt P48542+P63250); test: TEVC, K+ current enhancement through GIRK1/2 expressed in Xenopus oocytes; format: cell-based; details: 48 μM AsKC11; heterotetrameric GIRK1/2 in oocytes; mean ± SD, n = 4; data not shown
# T1 construct: expressed in transfected cells; host or cells: Xenopus laevis oocytes injected with cRNA
# T1 sequence (P63250 1-501): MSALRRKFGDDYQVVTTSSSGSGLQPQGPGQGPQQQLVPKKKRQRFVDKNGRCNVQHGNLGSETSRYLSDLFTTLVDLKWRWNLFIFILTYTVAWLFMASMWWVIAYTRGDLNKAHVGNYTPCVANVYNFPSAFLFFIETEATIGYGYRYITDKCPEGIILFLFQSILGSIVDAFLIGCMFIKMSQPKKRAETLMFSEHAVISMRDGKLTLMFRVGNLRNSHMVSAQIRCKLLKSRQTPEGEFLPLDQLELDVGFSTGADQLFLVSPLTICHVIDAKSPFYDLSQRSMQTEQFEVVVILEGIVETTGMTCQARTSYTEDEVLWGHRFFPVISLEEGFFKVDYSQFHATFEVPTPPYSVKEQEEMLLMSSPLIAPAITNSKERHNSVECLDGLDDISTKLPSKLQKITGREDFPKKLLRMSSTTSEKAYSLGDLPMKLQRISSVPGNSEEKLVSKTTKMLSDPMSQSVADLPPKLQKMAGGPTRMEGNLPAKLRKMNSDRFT
# T1 sequence (P48542 1-425): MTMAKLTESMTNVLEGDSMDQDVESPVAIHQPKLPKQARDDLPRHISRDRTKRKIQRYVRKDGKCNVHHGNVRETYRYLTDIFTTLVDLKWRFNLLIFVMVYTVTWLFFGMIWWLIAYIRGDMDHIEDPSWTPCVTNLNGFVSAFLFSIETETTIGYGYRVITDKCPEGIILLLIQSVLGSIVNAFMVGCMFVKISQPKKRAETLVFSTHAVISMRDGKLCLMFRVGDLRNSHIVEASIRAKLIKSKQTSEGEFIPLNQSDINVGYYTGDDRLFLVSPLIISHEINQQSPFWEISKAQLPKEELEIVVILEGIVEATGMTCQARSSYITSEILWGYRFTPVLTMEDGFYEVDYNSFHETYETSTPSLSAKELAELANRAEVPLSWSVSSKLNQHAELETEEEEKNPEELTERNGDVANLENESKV
# From the text: To identify the novel activator of GIRK1/2 channels, we first tested the effects of venom fractions previously purified from the venom of Anemonia sulcata on whole-cell currents in oocytes expressing GIRK1/2 channels. […] The oocytes coinjected with GIRK1/2 cRNA were voltage-clamped at −90 mV. To increase the GIRK current at the negative potential, a high-potassium extracellular buffer (HK) was used, which allowed for more obvious currents and accurate measurement. Thus, after exchanging ND96 to HK, basal K^+ currents (IK,basal) were observed and were carried by GIRK1/2 channels (Figure 1a).
# The potency of AsKC11 to enhance inward K^+ currents through GIRK1/2 channels was studied by applying increasing concentrations of AsKC11 (2.4, 12, 24, and 48 µM) to oocytes expressing GIRK1/2 channels. These oocytes were subjected to a 1-s voltage ramp protocol from −150 to +60 mV from a holding potential of −20 mV.
# All procedures for the use and handling of adult female Xenopus laevis frogs (CRB Xénopes, Rennes, France) were approved by the Animal Ethics Committee of the KU Leuven (Project No. P186/2019) following regulations of the European Union (EU) concerning the welfare of laboratory animals, as declared in Directive 2010/63/EU. […] After recovery from anesthesia, frogs were returned to their tanks in the Aquatic Facility of KU Leuven and were monitored daily. […]
# [6] = target: T1, mGIRK1/2; test: Kinetics and affinity of AsKC11 on GIRK1/2 channels (wash-in/wash-out, bimolecular scheme); format: cell-based
# From the text: As shown in the abovementioned results, AsKC11 binding was reversible. We next explored whether the AsKC11-elicited activation of GIRK1/2 channels followed a kinetic behavior of a simple bimolecular reaction. The current activation upon AsKC11 application and recovery upon AsKC11 removal followed a single exponential time course compatible with a bimolecular reaction scheme (See Section 4).
# For the expression of potassium channels (hKV1.1, hKV1.2, hKV1.3, rKV1.4, rKV1.6, and mGIRK1/2, mGIRK2 alone, or IRK1) in Xenopus oocytes, the linearized plasmids were transcribed using the T3, T7, or SP6 mMESSAGEmMACHINE transcription kit (Ambion, Austin, TX, USA). Following the cRNA injection into oocytes and 1–4 days of incubation at 16 °C, electrophysiological experiments were conducted using the two-electrode voltage-clamp (TEVC) GeneClamp 500B (Axon Instruments, San Jose, CA, USA). Electrodes were fabricated from borosilicate glass tubes (1.14 mm outside diameter, 0.7 mm inside diameter) by a programmable microelectrode puller, PUL-1 (World Precision Instruments, Sarasota, FL, USA). Electrodes were filled with 3 M KCl and had tip resistances from 0.8 to 1.5 MΩ. […]
# [7] = target: T2, GIRK1/2 channel (Mus musculus, UniProt P63250); test: two-electrode voltage clamp kinetics (koff/kon) in Xenopus oocytes
# T2 chain 1: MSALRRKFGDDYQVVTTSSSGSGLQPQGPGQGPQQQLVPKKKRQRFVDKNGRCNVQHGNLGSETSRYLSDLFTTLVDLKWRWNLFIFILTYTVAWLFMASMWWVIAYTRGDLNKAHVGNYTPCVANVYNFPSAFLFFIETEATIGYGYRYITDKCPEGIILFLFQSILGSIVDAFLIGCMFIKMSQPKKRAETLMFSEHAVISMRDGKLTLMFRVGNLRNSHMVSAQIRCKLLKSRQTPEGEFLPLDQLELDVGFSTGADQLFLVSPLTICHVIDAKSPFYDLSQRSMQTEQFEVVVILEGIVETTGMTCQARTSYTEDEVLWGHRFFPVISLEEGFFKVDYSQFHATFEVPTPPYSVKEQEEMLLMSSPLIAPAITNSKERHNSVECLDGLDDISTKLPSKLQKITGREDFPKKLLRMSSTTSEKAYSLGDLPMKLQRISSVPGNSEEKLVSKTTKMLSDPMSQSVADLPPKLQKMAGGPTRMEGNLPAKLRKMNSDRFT
# T2 chain 2: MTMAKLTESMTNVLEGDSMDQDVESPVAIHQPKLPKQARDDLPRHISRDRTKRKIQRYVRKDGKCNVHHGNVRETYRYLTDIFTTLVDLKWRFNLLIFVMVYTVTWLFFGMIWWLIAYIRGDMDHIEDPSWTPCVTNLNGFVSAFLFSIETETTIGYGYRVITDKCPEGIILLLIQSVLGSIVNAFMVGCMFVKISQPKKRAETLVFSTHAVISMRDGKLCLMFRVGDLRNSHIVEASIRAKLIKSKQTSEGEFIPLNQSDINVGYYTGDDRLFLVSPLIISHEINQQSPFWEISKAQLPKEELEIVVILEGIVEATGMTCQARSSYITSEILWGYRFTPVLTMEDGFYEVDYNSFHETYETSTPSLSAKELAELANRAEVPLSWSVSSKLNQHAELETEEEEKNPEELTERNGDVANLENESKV
molecule,measurement,setting,value
Cc1cc(NC(=O)Nc2ccc(F)c(F)c2)n(-c2ccccc2)n1 [ML297],affinity of activity on GIRK1/2,"[1]; ref [2],[5],[16]",nanomolar range
same,requirement for GIRK1/2 activation,[1]; ref [2],"required the presence of the membrane phospholipid phosphatidylinositol 4,5-bisphosphate instead of Gi/o"
same,effect on GIRK2 channel,[2],not affect the GIRK2 channel
same,effects in animal models,"[3]; ref [2],[16]",antiepileptic and anxiolytic effects in animal models
same,pharmacokinetic properties,[3]; ref [2],suboptimal
CCO [ethanol],potency for activating GIRK channels,[4],very low potency
C[C@@H]1O[C@@H](O[C@H]2[C@H](Oc3cc(O)c4c(c3)O[C@H](c3ccc(O)cc3)CC4=O)O[C@H](CO)[C@@H](O)[C@@H]2O)[C@H](O)[C@H](O)[C@H]1O [naringin],potency for activating GIRK channels,[4],very low potency
"INKDCLLPKVVGFCRARFPRYYYNSSSRRCEKFIYGGCGGNANNFSSYYECHIKCFGPR (disulfide 5-55, 14-38, 30-51) [AsKC11]","enhancement in inward K+ currents, GIRK1/2",[5],74.1 ± 12.5%
same,koff,"[6]; 48 μM AsKC11, wash-out, read-out: first-order dissociation rate constant (koff = β)",0.00633 s⁻¹
same,kon,"[6]; 48 μM AsKC11, read-out: second-order association rate constant (α)",78.2 M⁻¹ s⁻¹
AsKC11 (protein) INKDCLLPKVVGFCRARFPRYYYNSSSRRCEKFIYGGCGGNANNFSSYYECHIKCFGPR,Kd,[7],80.9 µM
